Common to all, as to assay: inhibition of tumour cell growth, NCI panel, 48 h
For assay [1], the system named is 786-0 renal.
Assay [2] relates to CAKI-1 renal.
For assay [3], the system named is K-562 leukemia.
Assay [4] has as its system NCI-H522 lung.
The subject of assay [5] is NCI/ADR-RES ovarian.
In assay [6] the test system is RPMI-8226 leukemia.
The test system of assay [7] is SF-268 CNS.
Assay [8] relates to SF-295 CNS.
Assay [9] has as its system SK-OV-3 ovarian.
The subject of assay [10] is SNB-75 CNS.
Assay [11] relates to T-47D breast.

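Grown in 96-well plates, cells were treated for 48 hours with each compound at five concentrations. Insufficient inhibition: endpoint recorded as highest concentration tested. GI50 is the concentration that inhibits growth by half. TGI is the concentration that stops growth completely.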

Experimental findings from PubChem BioAssay (NCI) are described below.

For the compound `Clc1ccc(Cl)c(N=Nc2cc3c4c(c2)CCN4CCC3)c1`, the TGI in [1], in [2], in assay [3], in assay [4], in assay [5] and in [6] was greater than 10 µM throughout. The TGI in [7], in assay [8], in assay [9], in assay [10] and in [11] was greater than 10 µM in each case.

As to `COC(=O)c1ccc2c(c1)CC1(C2)Cc2cc3c(cc2C1)CCC3`, the TGI in assay [1], in assay [2], in [3], in assay [4], in assay [5] and in [6] was greater than 100 µM throughout. The TGI in assay [7], in assay [8], in assay [9], in assay [10] and in [11] was greater than 100 µM throughout.

Consider `O=C1N=C2SC=C(NC(=S)Nc3ccccc3)N2NC12c1ccccc1-c1ccccc12`, for which the TGI in assay [1], in [2], in assay [3], in [4], in assay [5] and in assay [6] was greater than 10 µM each time. Also, the TGI in assay [7], in assay [8], in assay [9], in assay [10] and in [11] was greater than 10 µM each time.

On to `CC(C)C1CNC(=O)C2(C=NC(C(C)C)CNC(=O)C3(C=N1)CCCO3)CCCO2` (stereo not given), for which the TGI in assay [1], in assay [2], in assay [3], in assay [4], in assay [5] and in [6] was greater than 10 µM throughout. Besides, the TGI in assay [7], in assay [8], in assay [9], in assay [10] and in assay [11] was greater than 10 µM each time.

`Cc1c(C)c2c(c(N)c1C#N)C(=O)N(O)C2=O`: the TGI in assay [1], in assay [2], in assay [3], in assay [4], in [5] and in [6] was greater than 100 µM throughout. The TGI in assay [7], in assay [8], in [9], in [10] and in [11] was greater than 100 µM each time.

Take `O=C(NCCN1CCCCC1)c1ccc(Br)cc1`: the TGI in assay [1], in assay [2], in assay [3], in assay [4], in [5] and in assay [6] was greater than 100 µM in each case. For the same compound, the TGI in [7], in assay [8], in [9], in assay [10] and in assay [11] was greater than 100 µM each time.

`CC1=NN(c2nc(N)nc(NS(=O)(=O)c3cc(C)c(Cl)cc3S)n2)C(C)(C)C1`: the TGI in [1], in assay [2], in [3], in assay [4], in [5] and in assay [6] was greater than 10 µM each time. For the same compound, the TGI in assay [7], in assay [8], in assay [9], in assay [10] and in [11] was greater than 10 µM each time.

Take `CS(=O)(=O)N1CC(CCl)c2ccc(NO)cc21` (stereo not given): the TGI in assay [1] came out at 28 µM; in assay [2] it was 27.6 µM; in assay [3], 8.58 µM; in assay [4], 16.3 µM; in assay [5], 22.9 µM; in assay [6], 16 µM. Further, the TGI is 22.5 µM in assay [7]; 61.9 µM in assay [8]; greater than 31.6 µM in assay [9]; 32.3 µM in assay [10]; 60.1 µM in assay [11].

For `O=C1CN(c2ccccc2)Cc2nc(Cl)ccc2N1`, the TGI in assay [1], in assay [2], in assay [3], in assay [4], in assay [5] and in assay [6] was greater than 100 µM in each case. Moreover, the TGI in [7], in [8], in assay [9], in assay [10] and in assay [11] was greater than 100 µM throughout.

As to `CC(CSC(=N)N)C(N)=O` (stereo not given), the TGI in [1], in [2], in assay [3], in assay [4], in assay [5] and in assay [6] was greater than 100 µM each time. Further, the TGI in assay [7], in assay [8], in assay [9], in assay [10] and in assay [11] was greater than 100 µM throughout.

For the compound `COc1nc(N=P(c2ccccc2)(c2ccccc2)c2ccccc2)cc(=O)n1C`, the TGI in assay [1], in assay [2], in [3], in [4], in [5] and in [6] was greater than 100 µM throughout. Besides, the TGI in [7], in [8], in [9], in [10] and in [11] was greater than 100 µM each time.

On to `CC(=O)CCCCn1c(=O)c2c(nc(Br)n2C)n(C)c1=O`, for which the TGI was greater than 100 µM in assay [1]; 3.87 µM in assay [2]; greater than 100 µM in [3]; 24.9 µM in assay [4]; greater than 100 µM in [5]; greater than 100 µM in [6]. Besides, the TGI in [7], in assay [8], in [9], in assay [10] and in [11] was greater than 100 µM throughout.

As to `O=C1N/C(=N\N=C\c2ccccc2)C(c2ccccc2)O1` (stereo not given), the TGI in assay [1], in [2], in [3], in assay [4], in assay [5] and in [6] was greater than 100 µM throughout. Moreover, the TGI in [7] is greater than 100 µM; in assay [8], greater than 100 µM; in assay [9], greater than 100 µM; in assay [10], 0.0124 µM; in assay [11], greater than 100 µM.

In the case of `COc1ccc(C(O)/C(=N/N)c2nc3ccc(Cl)cc3[nH]c2=O)cc1` (stereo not given), the TGI in assay [1], in assay [2], in assay [3], in [4], in assay [5] and in [6] was greater than 100 µM throughout. Further, the TGI in assay [7], in assay [8], in assay [9], in [10] and in [11] was greater than 100 µM each time.

As for `FC(F)(F)c1ccc(C2ON=C(c3ccccc3)N2C23CC4CC(CC(C4)C2)C3)cc1` (stereo not given), the TGI in [1], in [2], in assay [3], in assay [4], in [5] and in [6] was greater than 10 µM in each case. Besides, the TGI in [7], in assay [8], in assay [9], in assay [10] and in assay [11] was greater than 10 µM in each case.

In the case of `COC1(CC[C@@H](C)COC2OC(CO)C(O)C(O)C2O)O[C@H]2C[C@H]3[C@@H]4CC=C5C[C@@H](OC6OC(CO)C(OC7OC(C)C(O)C(O)C7O)C(O)C6OC6OC(C)C(O)C(O)C6O)CC[C@]5(C)[C@H]4CC[C@]3(C)[C@H]2[C@@H]1C` (stereo not given in full), the TGI in [1] came to 4.02 µM; in [2], 2.61 µM; in assay [3] it was 16 µM; in [4], 4.23 µM; in assay [5] it was 6.19 µM; in assay [6] it was 13.7 µM. The TGI was 6.76 µM in [7]; 5.22 µM in assay [8]; 3.09 µM in assay [9]; 3.37 µM in [10]; 10.9 µM in assay [11]. The GI50 was 1.25 µM in assay [2]; 5.12 µM in assay [3]; 2.59 µM in assay [5]; 3.83 µM in [6]; 2.38 µM in assay [7]; 2.02 µM in [8]. Moreover, the GI50 in assay [11] is 4.08 µM.

As to `O=C/C(=C1/C=Cc2cc([N+](=O)[O-])ccc2S1)c1ccccc1`, the TGI in assay [1], in assay [2], in [3], in assay [4], in assay [5] and in assay [6] was greater than 100 µM in each case. For the same compound, the TGI in assay [7], in [8], in [9], in [10] and in assay [11] was greater than 100 µM throughout.

Turning to `CO/C(N)=C(\C#N)N=Cc1ccc2ccccc2c1`, the TGI in assay [1] is greater than 100 µM; in assay [2], greater than 100 µM; in assay [3], 94.6 µM; in assay [4], greater than 100 µM; in [5], greater than 100 µM; in [6], greater than 100 µM. For the same compound, the TGI in assay [7], in [8], in [9], in assay [10] and in assay [11] was greater than 100 µM throughout.

With `CCOC(=O)c1c[nH]c(C(=O)OCC)c1-c1cccn1-c1ccccc1`, the TGI in assay [1] is greater than 100 µM; in [2], 67.7 µM; in assay [3], 45.4 µM; in assay [4] it was 55.4 µM; in assay [5] it was 76 µM; in [6] it was 52.6 µM. Also, the TGI is greater than 100 µM in [7]; 52.3 µM in [8]; 90.6 µM in assay [9]; 52.2 µM in assay [10]; greater than 100 µM in [11].

For the compound `CCc1n[nH]c(=O)n1CCCCCCCCn1c(CC)n[nH]c1=O`, the TGI in assay [1], in assay [2], in assay [3], in assay [4], in assay [5] and in [6] was greater than 100 µM each time. Besides, the TGI in assay [7], in assay [8], in assay [9], in assay [10] and in assay [11] was greater than 100 µM in each case.

Turning to `CN(C)c1ccc(/C=C/C(=O)c2ccc(O)cc2)cc1`, the TGI in [1] was greater than 78.3 µM; in [2] it was greater than 100 µM; in [3] it was 8.38 µM; in assay [4], 8.58 µM; in [5], greater than 40.6 µM; in assay [6], 22 µM. In addition, the TGI was greater than 100 µM in assay [7]; greater than 41.6 µM in assay [8]; 61.9 µM in assay [9]; greater than 42.7 µM in assay [10]; 57.6 µM in [11].

`Nc1nc(Nc2ccc(Cl)c(Cl)c2)nc2nc[nH]c12`: the TGI in [1] amounted to 31.3 µM; in assay [2] it was 25.1 µM; in [3], 47.4 µM; in [4] it was 29.3 µM; in assay [5], 38.3 µM; in assay [6] it was 62.8 µM. The TGI in assay [7] turned out to be 22.9 µM; in [8] it was 35.7 µM; in [9] it was 31.8 µM; in [10] it was 20.9 µM; in assay [11] it was 25.1 µM.

As to `COc1ccc(-n2c(CCC(=O)O)nc3c2C(=O)c2ccccc2C3=O)cc1`, the TGI in assay [1], in assay [2], in assay [3], in assay [4], in assay [5] and in [6] was greater than 100 µM in each case. Further, the TGI in assay [7], in assay [8], in [9], in [10] and in [11] was greater than 100 µM in each case.
